# Patent US11291684B2, “Treatment of glaucoma” (TX MEDIC AB, priority 2017, dated 2022)
# Assays:
# Format in all cases: in vivo, Sprague Dawley rats
# glaucomatous eyes = test: Intraocular pressure in TGF-β-induced glaucoma model (rebound tonometer); conditions: rat, 15 mg/kg daily s.c. from day 14
# Excerpt: Raised IOP was induced by twice weekly intracameral injections of the inflammatory cytokine TGF-β over the entire time period of 28 days. This induced scarring of the trabecular meshwork (TM) drainage portals by day 14 with associated raised IOP. Daily subcutaneous dextran sulfate/saline treatments commenced at day 14.
# Glaucoma was induced in adult male Sprague Dawley rats by repeat twice weekly intracameral (IC) injections of transforming growth factor-β (TGF-β) to increase intraocular pressure (IOP). Sustained increases in IOP (after two weeks) leads to death of retinal ganglion cells (30-40%). Dextran sulfate (Tikomed AB, Sweden, WO 2016/076780) was administered at 15 mg/kg by daily subcutaneous injection from […] to assess RGC protection compared to controls.
# Group 1 n=12 rats; 24 eyes IOP+IC TGF-β (twice weekly for 28 days) between day 0 and day 28+ daily subcutaneous administration of dextran sulfate from day 14 to day 28.
# Sixteen 8 to 10 week-old male 175-200 g Sprague Dawley rats (Charles River, Kent, UK), housed with free access to food and water under a 12 h dark/light cycle, were used for these experiments. Surgery was performed at the Biomedical Services Unit at the University of Birmingham in accordance with the Home Office guidelines set out in the 1986 Animal Act (UK) and the ARVO Statement for the Use of Animals in Ophthalmic and Vision Research. […] The post-operative welfare of all rats was monitored closely. […]
# Using an iCare Tonolab rebound tonometer (Icare, Helsinki, Finland), IOP was recorded bi-weekly between 9-11 am for the duration of each experiment to avoid confounding the readings with circadian variability. Immediately after induction of anesthesia with 5% isoflurane, six rebound measurements were taken with the tonometer from the central cornea on each measurement occasion to give an overall average IOP measurement (mmHg) and all graphical data points represent the mean±SEM of 3 readings (of 6 rebounds each) taken sequentially to ensure accurate measurements.
# [1] = tested on: trabecular meshwork (TM) scarring; test: Trabecular meshwork scarring: laminin and fibronectin immunohistochemistry in the angle; conditions: rat TGF-β glaucoma model, day 28, vs saline
# Excerpt: Measured End-Points • IOP twice weekly throughout study from day 0 to day 28; • Immunohistochemistry for counting RGC that are immunoreactive for brain-specific homeobox/POU domain protein 3A (Brn3a) at day 28 (RGC survival); • Immunohistochemistry for laminin and fibronectin to evaluate scarring in the trabecular meshwork at day 28 in Groups 1 and 2; • Anterior segment and OCT imaging at day 28 to examine the angle and the thickness of the retinal nerve fiber layer comprising RGC axons; and • Body weight at day 28. […]
# After immunofluorescence staining, sections were viewed on a Zeiss Axioplan 2 epi-fluorescent microscope (Carl Zeiss Ltd) and images captured using the same exposure times for each antibody using a Zeiss AxioCam HRc. IHC was quantified according to the methods previously described. Briefly, the region of interest used for quantitation of TM fibrosis was defined by a quadrant of the same prescribed size for all eyes/treatments within the TM, and ECM deposition was quantified within this defined quadrant of the TM and the % immunofluorescent pixels above a standardized background threshold calculated using ImageJ software (National Institutes of Health, USA). […] Images were assigned randomized numbers to ensure blinding of treatment groups during quantification by the assessor.
# [2] = Body weight and activity of rats in glaucoma model; conditions: rat; day 28; treated animals gaining less weight
# Excerpt: Measured End-Points • IOP twice weekly throughout study from day 0 to day 28; • Immunohistochemistry for counting RGC that are immunoreactive for brain-specific homeobox/POU domain protein 3A (Brn3a) at day 28 (RGC survival); • Immunohistochemistry for laminin and fibronectin to evaluate scarring in the trabecular meshwork at day 28 in Groups 1 and 2; • Anterior segment and OCT imaging at day 28 to examine the angle and the thickness of the retinal nerve fiber layer comprising RGC axons; and • Body weight at day 28.
substance,measurement,setting,value
dextran sulfate,IOP compared to controls,"glaucomatous eyes; IC TGF-β twice weekly, day 24, vs saline",significantly lower (P<0.001) and normalized
same,IOP compared to control group,"glaucomatous eyes; IC TGF-β twice weekly, day 28 (end of experiment), vs saline",remained significantly lower
same,time of treatment after which elevated IOP started to reduce,glaucomatous eyes; IC TGF-β,7 days
same,levels of immunoreactive laminin in the angle,[1]; P<0.001,significantly reduced
same,levels of immunoreactive fibronectin in the angle,[1]; P<0.01,significantly reduced
same,body weight difference vs saline treated animals,[2],small but non-significant difference
